Assay results taken from patent US12495798B2, “Nicotinamide compound and herbicidal composition comprising compound” (KOREA RESEARCH INSTITUTE OF CHEMICAL TECHNOLOGY, priority 2019, dated 2025).

Experiments:
Assay type in all cases: in vivo
rice = assay: Phytotoxicity test for upland field crops (foliar treatment test); design: key: 0 (no harm); 9 (complete withered)
Protocol: (§1) Experimental Example 3: Phytotoxicity Test for Upland Field Crops (Foliar Treatment Test)
(§2) Foliar treatment was performed for grown crops and weeds in a square plastic pot having a surface area of 50 cm^2 filled with horticultural soil. As a fertilizer per pot, 0.5 g of horticultural mixed fertilizer (N:P:K=17:21:17) was treated by mixing in the upper soil. Five kinds of crops such as rice, wheat, corn, soybean, and cotton were sown in each pot, and after growing for a certain period in greenhouse conditions (average temperature 30±5° C., light/dark=14/10 hours), test compound solutions were made by diluting with the diluent (33% acetone, 0.1% Tween-20) so that the final treatment amount of the test compounds was 19˜300 g a.i./ha. The prepared test compound solutions were treated using a spray booth (SB6-016) at a treatment amount of 100 ml per 1 m^2 of treatment area. The treated plants were managed under the same greenhouse conditions as above, and external symptoms and phytotoxicity were investigated 7 and 14 days after treatment (after 21 days if necessary). In the evaluation of the phytotoxicity for the crop, the grade of 0 (no harm) to 9 (complete withered) was used. The results of Table 9 were obtained by evaluating crop phytotoxicity value to the untreated control.

cotton = assay: as above; design: key: 0 (no harm); 9 (complete withered)
Protocol: as §1, §2

soybean = assay: as above; design: key: 0 (no harm); 9 (complete withered)
Protocol: as §1, §2

wheat = assay: as above; design: key: 0 (no harm); 9 (complete withered)
Protocol: as §1, §2

corn = assay: as above; design: key: 0 (no harm); 9 (complete withered)
Protocol: as §1, §2

cocklebur = assay: Herbicidal activity test against upland field weeds (foliar treatment test); conditions: Xanthium strumarium, 50 g ai/ha, scale 0-100
Protocol: (§3) Experimental Example 1: Herbicidal Activity Test Against Upland Field Weeds (Foliar Treatment Test) Foliar treatment was performed as follows: After filling a square plastic pot having a surface area of 350 cm^2 with horticultural soil, seeds (10˜15 grains) or rootstocks (2 pieces) of 5 kinds of grassy weeds of sorghum, barnyard grass, quack grass, crabgrass, fall panicum, and 5 kinds of broadleaf weeds of black nightshade, indian jointvetch, velvetleaf, cocklebur, bindweed, which had been stored in a low temperature (6° C.), were sown. After growing for a certain period in greenhouse conditions (average temperature 30±5° C., light/dark=14/10 hours), test compound solutions were made by diluting with a preparation solution (including 50% acetone, 0.1% Tween-20) so that the final treatment amount of the test compounds was 50 or 75 g a.i./ha. The prepared test compound solution was used for treating foliage by hand-spraying 14 mL per pot in a fume hood. After the treatment, it was managed under the same greenhouse conditions as above, and after 14 days (after 21 days if necessary), the external symptoms and efficacy were investigated according to the scale of 0 (no control) to 100 (complete control). The results of Table 7 were obtained by evaluating weed control value to the untreated control by conducting visual assessment.

bindweed = assay: as above; design: key to Foliar treatment herbicidal activity, Bindweed: 0 (no control); 100 (complete control); conditions: 50 g ai/ha, scale 0-100
Protocol: as §3

quack grass = assay: as above; design: key to Foliar treatment herbicidal activity, quack grass: 0 (no control); 100 (complete control); conditions: 50 g ai/ha, scale 0-100
Protocol: as §3

velvetleaf = assay: as above; design: key to Foliar treatment herbicidal activity, velvet leaf: 0 (no control); 100 (complete control); conditions: 50 g ai/ha; for pest or weed control at 50 g/ha: Abutilon theophrasti, scale 0-100, read-out: Foliar treatment herbicidal activity, velvet leaf; for Foliar treatment herbicidal activity, velvet leaf: scale 0-100
Protocol: as §3

sorghum = assay: as above; design: key to Foliar treatment herbicidal activity, Sorghum: 0 (no control); 100 (complete control); conditions: 50 g ai/ha, scale 0-100
Protocol: as §3

barnyard grass = assay: as above; design: key to Foliar treatment herbicidal activity, barnyard grass: 0 (no control); 100 (complete control); conditions: 50 g ai/ha, scale 0-100
Protocol: as §3

black nightshade = assay: as above; conditions: Solanum nigrum, 50 g ai/ha, scale 0-100
Protocol: as §3

indian jointvetch = assay: as above; design: key to Foliar treatment herbicidal activity, Indian jointvetch: 0 (no control); 100 (complete control); conditions: 50 g ai/ha, scale 0-100
Protocol: as §3

crabgrass = assay: as above; design: key to Foliar treatment herbicidal activity, Crabgrass: 0 (no control); 100 (complete control); conditions: 50 g ai/ha, scale 0-100
Protocol: as §3

fall panicum = assay: as above; design: key to Foliar treatment herbicidal activity, Fall panicum: 0 (no control); 100 (complete control); conditions: 50 g ai/ha, scale 0-100
Protocol: as §3

[1] = 50 g ai/ha, Rice (7 days after treatment)
[2] = 50 g ai/ha, Rice (14 days after treatment)
[3] = 100 g ai/ha, Rice (7 days after treatment)
[4] = 100 g ai/ha, Rice (14 days after treatment)
[5] = 50 g ai/ha, Cotton (7 days after treatment)
[6] = 50 g ai/ha, Cotton (14 days after treatment)
[7] = 100 g ai/ha, Cotton (7 days after treatment)
[8] = 100 g ai/ha, Cotton (14 days after treatment)
[9] = 50 g ai/ha, Soybean (7 days after treatment)
[10] = 50 g ai/ha, Soybean (14 days after treatment)
[11] = 100 g ai/ha, Soybean (7 days after treatment)
[12] = 100 g ai/ha, Soybean (14 days after treatment)
[13] = 50 g ai/ha, Wheat (7 days after treatment)
[14] = 50 g ai/ha, Wheat (14 days after treatment)
[15] = 100 g ai/ha, Wheat (7 days after treatment)
[16] = 100 g ai/ha, Wheat (14 days after treatment)
[17] = 50 g ai/ha, Corn (7 days after treatment)
[18] = 50 g ai/ha, Corn (14 days after treatment)
[19] = 100 g ai/ha, Corn (7 days after treatment)
[20] = 100 g ai/ha, Corn (14 days after treatment)

For `Cn1nnnc1CSc1nc(C(F)(F)F)ccc1C(=S)Nc1nnnn1C` [1-44], the “Foliar treatment phytotoxicity, Rice” value (rice; [1]) was 6, the “Foliar treatment phytotoxicity, Rice” value (rice; [2]) was 9 and the “Foliar treatment phytotoxicity, Rice” value (rice; [3]) was 6. The “Foliar treatment phytotoxicity, Rice” value (rice; [4]) was 9, the “Foliar treatment phytotoxicity, Cotton” value (cotton; [5]) was 4 and the “Foliar treatment phytotoxicity, Cotton” value (cotton; [6]) was 9. For the same compound, the “Foliar treatment phytotoxicity, Cotton” value (cotton; [7]) was 5, the “Foliar treatment phytotoxicity, Cotton” value (cotton; [8]) was 9 and the “Foliar treatment phytotoxicity, Soybean” value (soybean; [9]) was 6. For the same compound, the “Foliar treatment phytotoxicity, Soybean” value (soybean; [10]) was 7, the “Foliar treatment phytotoxicity, Soybean” value (soybean; [11]) was 6 and the “Foliar treatment phytotoxicity, Soybean” value (soybean; [12]) was 7. For the same compound, the “Foliar treatment phytotoxicity, Wheat” value (wheat; [13]) was 0, the “Foliar treatment phytotoxicity, Wheat” value (wheat; [14]) was 0 and the “Foliar treatment phytotoxicity, Wheat” value (wheat; [15]) was 0. For the same compound, the “Foliar treatment phytotoxicity, Wheat” value (wheat; [16]) was 0, the “Foliar treatment phytotoxicity, Corn” value (corn; [17]) was 5 and the “Foliar treatment phytotoxicity, Corn” value (corn; [18]) was 3. For the same compound, the “Foliar treatment phytotoxicity, Corn” value (corn; [19]) was 5 and the “Foliar treatment phytotoxicity, Corn” value (corn; [20]) was 3.
For `Cn1nnnc1COc1nc(C(F)(F)F)ccc1C(=O)Nc1nnnn1C(F)F` [Compound No. 1-4, N-(1-(difluoromethyl)-1H-tetrazol-5-yl)-2-((1-methyl-1H-tetrazol-5-yl)methoxy)-6-(trifluoromethyl)nicotinamide], the pest or weed control at 50 g/ha (cocklebur) was 60%, the pest or weed control at 50 g/ha (bindweed) was 20% and the “Foliar treatment herbicidal activity, quack grass” value (quack grass) was 0. The pest or weed control at 50 g/ha (velvetleaf) was 20%, the “Foliar treatment herbicidal activity, Sorghum” value (sorghum) was 0 and the “Foliar treatment herbicidal activity, barnyard grass” value (barnyard grass) was 0. The pest or weed control at 50 g/ha (black nightshade) was 80%, the pest or weed control at 50 g/ha (indian jointvetch) was 20% and the “Foliar treatment herbicidal activity, Crabgrass” value (crabgrass) was 0. For the same compound, the “Foliar treatment herbicidal activity, Fall panicum” value (fall panicum) was 0.
In the case of `Cn1nnnc1COc1nc(C(F)(F)F)cc(Cl)c1C(=O)Nc1nnnn1C` [Compound No. 1-13, 4-chloro-N-(1-methyl-1H-tetrazol-5-yl)-2-((1-methyl-1H-tetrazol-5-yl)methoxy)-6-(trifluoromethyl)nicotinamide], the pest or weed control at 50 g/ha (cocklebur) is reported as 20%, the “Foliar treatment herbicidal activity, Bindweed” value (bindweed) is reported as 0 and the “Foliar treatment herbicidal activity, quack grass” value (quack grass) is reported as 0. For the same compound, the “Foliar treatment herbicidal activity, velvet leaf” value (velvetleaf) was 0, the “Foliar treatment herbicidal activity, Sorghum” value (sorghum) was 0 and the “Foliar treatment herbicidal activity, barnyard grass” value (barnyard grass) was 0. For the same compound, the pest or weed control at 50 g/ha (black nightshade) was 60%, the “Foliar treatment herbicidal activity, Indian jointvetch” value (indian jointvetch) was 0 and the “Foliar treatment herbicidal activity, Crabgrass” value (crabgrass) was 0. The “Foliar treatment herbicidal activity, Fall panicum” value (fall panicum) was 0.
With `Cn1nnnc1COc1nc(Cl)ccc1C(=O)Nc1nnnn1C` [Compound No. 1-20, 6-chloro-N-(1-methyl-1H-tetrazol-5-yl)-2-((1-methyl-1H-tetrazol-5-yl)methoxy)nicotinamide] the pest or weed control at 50 g/ha (cocklebur) was 20%, the “Foliar treatment herbicidal activity, Bindweed” value (bindweed) was 0 and the “Foliar treatment herbicidal activity, quack grass” value (quack grass) was 0. For the same compound, the “Foliar treatment herbicidal activity, velvet leaf” value (velvetleaf) was 0, the “Foliar treatment herbicidal activity, Sorghum” value (sorghum) was 0 and the “Foliar treatment herbicidal activity, barnyard grass” value (barnyard grass) was 0. For the same compound, the pest or weed control at 50 g/ha (black nightshade) was 50%, the “Foliar treatment herbicidal activity, Indian jointvetch” value (indian jointvetch) was 0 and the “Foliar treatment herbicidal activity, Crabgrass” value (crabgrass) was 0. For the same compound, the “Foliar treatment herbicidal activity, Fall panicum” value (fall panicum) was 0.
In the case of `Cn1nnnc1NC(=O)c1ccc(C(F)(F)F)nc1COCc1nnnn1C(F)F` [Compound No. 1-85, 2-(((1-(difluoromethyl)-1H-tetrazol-5-yl)methoxy)methyl)-N-(1-methyl-1H-tetrazol-5-yl)-6-(trifluoromethyl)nicotinamide], the pest or weed control at 50 g/ha (cocklebur) is reported as 90%, the pest or weed control at 50 g/ha (bindweed) is reported as 40% and the “Foliar treatment herbicidal activity, quack grass” value (quack grass) is reported as 0. The pest or weed control at 50 g/ha (velvetleaf) was 20%, the “Foliar treatment herbicidal activity, Sorghum” value (sorghum) was 0 and the “Foliar treatment herbicidal activity, barnyard grass” value (barnyard grass) was 0. The pest or weed control at 50 g/ha (indian jointvetch) was 40%, the “Foliar treatment herbicidal activity, Crabgrass” value (crabgrass) was 0 and the pest or weed control at 50 g/ha (fall panicum; Panicum dichotomiflorum) was 40%.
In the case of `COC(=O)OC(C)N(C(=O)c1ccc(C(F)(F)F)nc1COCc1ncn(C)n1)c1nnnn1C` (stereo not shown) [Compound No. 4-1, methyl(1-(2-(((1-methyl-1H-1,2,4-triazol-3-yl)methoxy)methyl)-N-(1-methyl-1H-tetrazol-5-yl)-6-(trifluoromethyl)nicotinamido)ethyl)carbonate], the “Foliar treatment phytotoxicity, Rice” value (rice; [1]) is reported as 2, the “Foliar treatment phytotoxicity, Rice” value (rice; [2]) is reported as 6 and the “Foliar treatment phytotoxicity, Rice” value (rice; [3]) is reported as 3. The “Foliar treatment phytotoxicity, Rice” value (rice; [4]) was 7, the “Foliar treatment phytotoxicity, Cotton” value (cotton; [5]) was 3 and the “Foliar treatment phytotoxicity, Cotton” value (cotton; [6]) was 8. For the same compound, the “Foliar treatment phytotoxicity, Cotton” value (cotton; [7]) was 3, the “Foliar treatment phytotoxicity, Cotton” value (cotton; [8]) was 8 and the “Foliar treatment phytotoxicity, Soybean” value (soybean; [9]) was 4. For the same compound, the “Foliar treatment phytotoxicity, Soybean” value (soybean; [10]) was 6, the “Foliar treatment phytotoxicity, Soybean” value (soybean; [11]) was 4 and the “Foliar treatment phytotoxicity, Soybean” value (soybean; [12]) was 8. For the same compound, the “Foliar treatment phytotoxicity, Wheat” value (wheat; [13]) was 0, the “Foliar treatment phytotoxicity, Wheat” value (wheat; [14]) was 0 and the “Foliar treatment phytotoxicity, Wheat” value (wheat; [15]) was 0. For the same compound, the “Foliar treatment phytotoxicity, Wheat” value (wheat; [16]) was 0, the “Foliar treatment phytotoxicity, Corn” value (corn; [17]) was 0 and the “Foliar treatment phytotoxicity, Corn” value (corn; [18]) was 0. For the same compound, the “Foliar treatment phytotoxicity, Corn” value (corn; [19]) was 0 and the “Foliar treatment phytotoxicity, Corn” value (corn; [20]) was 0.
